The text below walks through data of patent publication US9701672B2, “Dihydropyridinone MGAT2 inhibitors for use in the treatment of metabolic disorders” (BRISTOL-MYERS SQUIBB COMPANY, priority 2014, dated 2017).

The structures appear in SMILES notation.

This experiment deals with human MGAT-2 (Homo sapiens (Human), UniProt Q3SYC2). In words: MGAT LCMS assay (h-MGAT LCMS). The class given is biochemical. The settings on record: human MGAT2 membranes expressed in Sf9 cells; 100 μM 2-oleoylglycerol, 15 μM oleoyl-coenzyme A. The method, then: The MGAT enzyme reactions were performed in Corning FALCON® 96-well polypropylene plates, in a total volume of 60 μL of 50 mM potassium phosphate buffer pH 7.4, containing a final concentration of 100 μM 2-oleoylglycerol, 15 μM oleoyl-coenzyme A and 0.0013 μg/μL human or mouse MGAT-2 or 0.0026 μg/μL rat recombinant MGAT-2 membranes expressed in Sf9 cells. Assay plates were run through a fully automated robotics system and shaken for 5 seconds every minute for a total 10 minutes. The reactions were then quenched with 120 μL of ice cold methanol containing 1 μg/mL 1,2-distearoyl-rac-glycerol as the internal standard. Plates were shaken for 2 minutes and spun down to remove protein precipitation. After the spin, samples were transferred to LC/MS compatible PCR plates. For LC/MS analysis, a ThermoFisher Surveyor pump, utilizing a Waters […]® C8, 50×2.1 mm column, was used for the chromatography of enzyme products. The buffer system consists of 0.1% formic acid in water with a mobile phase consisting 0.1% formic acid in methanol. The shallow gradient is 90-100% mobile phase in 0.2 min with a total run time of 2.3 min. The first 0.5 minutes of each injection was diverted to waste to eliminate the presence of phosphate buffer in the enzymatic reaction. The column was run at 0.6 mL/min and a temperature of 65° C. Mass spectrometry analysis of the samples was performed on a ThermoFisher Quantum Triple quad utilizing APCI (+) as the mode of ionization. Data was acquired in Single Ion Monitoring (SIM) mode analyzing Diolein=m/z 603.6 (PRODUCT) and 1,2-distearoyl-rac-glycerol (IS)=m/z 607.6. The ratio of Diolein to internal standard (Peak Area Ratio) is utilized to calculate IC50 values.
Sequence of human MGAT-2 (Q3SYC2 whole entry): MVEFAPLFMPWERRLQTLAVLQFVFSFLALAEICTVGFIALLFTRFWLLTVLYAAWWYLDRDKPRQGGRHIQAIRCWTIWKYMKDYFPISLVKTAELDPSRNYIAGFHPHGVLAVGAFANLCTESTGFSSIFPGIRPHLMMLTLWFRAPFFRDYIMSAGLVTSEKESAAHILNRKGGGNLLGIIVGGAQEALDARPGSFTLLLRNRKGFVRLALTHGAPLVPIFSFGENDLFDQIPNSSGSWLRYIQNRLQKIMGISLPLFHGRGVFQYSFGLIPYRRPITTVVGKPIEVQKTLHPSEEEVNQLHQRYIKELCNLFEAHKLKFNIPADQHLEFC
“NT” denotes “Not tested”.
Usually IC50 stands for the point on the concentration scale where inhibition reaches its midpoint. Read a high IC50 as weaker potency. `O=C1N[C@@](c2ccc(OCCCCCC(F)(F)F)cc2)(C(F)(F)F)CC(c2nc3ccccc3s2)=C1c1nnn[nH]1` [Example 60] gave an IC50 of 137 nM.

`O=C1N[C@@](c2ccc(OCCCC(F)(F)F)cc2Cl)(C(F)(F)F)CC(c2ccn(C3CC3)n2)=C1c1nnn[nH]1` [Example 61] showed an IC50 of 120 nM.

As to `CCc1cnc(C2=C(c3nnn[nH]3)C(=O)N[C@@](c3ccc(OCCCC(F)(F)F)cc3F)(C(F)(F)F)C2)s1` [Example 62], inhibition was half-maximal at 2.1 nM (IC50).

In the case of `O=C1N[C@@](c2ccc(OCCCCCC(F)(F)F)cc2Cl)(C(F)(F)F)CC(c2ncc(C3CC3)s2)=C1c1nnn[nH]1` [Example 63], the IC50 was determined as 0.7 nM.

`O=C1N[C@@](c2ccc(OCCCC(F)(F)F)cc2Cl)(C(F)(F)F)CC(c2ncc(C3CC3)s2)=C1c1nnn[nH]1` [Example 64] gave an IC50 of 1.1 nM.

In turn, `CCc1ccc(C2=C(c3nnn[nH]3)C(=O)N[C@@](c3ccc(Br)cc3)(C(F)(F)F)C2)s1` [Example 65] yielded an IC50 of 8.8 nM.

`CCc1cnc(C2=C(c3nnn[nH]3)C(=O)N[C@@](c3ccc(OCCCCCC(F)(F)F)cc3F)(C(F)(F)F)C2)s1` [Example 66] had an IC50 of 0.5 nM.

The molecule `Cc1ccc(C2=C(C#N)C(=O)N[C@@](c3ccc(OCCCC(F)(F)F)cc3)(C(F)(F)F)C2)s1` [Example 67, (S)-4-(5-Methylthiophen-2-yl)-2-oxo-6-(4-(4,4,4-trifluorobutoxy)phenyl)-6-(trifluoromethyl)-1,2,5,6-tetrahydropyridine-3-carbonitrile] returned an IC50 of 97.6 nM.

For `N#CC1=C(c2ccc(Cl)s2)C[C@](c2ccc(OCCCC(F)(F)F)cc2)(C(F)(F)F)NC1=O` [Example 68, (S)-4-(5-Chlorothiophen-2-yl)-2-oxo-6-(4-(4,4,4-trifluorobutoxy)phenyl)-6-(trifluoromethyl)-1,2,5,6-tetrahydropyridine-3-carbonitrile], it took 30.2 nM to reach half-maximal inhibition (IC50).

The molecule `Cc1csc(C2=C(C#N)C(=O)N[C@@](c3ccc(OCCCC(F)(F)F)cc3)(C(F)(F)F)C2)c1` [Example 69, (S)-4-(4-Methylthiophen-2-yl)-2-oxo-6-(4-(4,4,4-trifluorobutoxy)phenyl)-6-(trifluoromethyl)-1,2,5,6-tetrahydropyridine-3-carbonitrile] showed an IC50 of 148 nM.

Molecule `COc1ccc(C2=C(C#N)C(=O)N[C@@](c3ccc(OCCCCC(F)(F)F)cc3)(C(F)(F)F)C2)cn1` [Example 70, (S)-6-Methoxy-2′-oxo-6′-(trifluoromethyl)-6′-(4-((5,5,5-trifluoropentyl)oxy)phenyl)-1′,2′,5′,6′-tetrahydro-[3,4′-bipyridine]-3′-carbonitrile] showed an IC50 of 32.3 nM.

The molecule `Cc1ccc(C2=C(C#N)C(=O)N[C@@](c3ccc(OCCCCCC(F)(F)F)cc3)(C(F)(F)F)C2)s1` [Example 71, (S)-4-(5-Methylthiophen-2-yl)-2-oxo-6-(4-((6,6,6-trifluorohexyl)oxy)phenyl)-6-(trifluoromethyl)-1,2,5,6-tetrahydropyridine-3-carbonitrile] registered an IC50 of 31.5 nM.

In turn, `COc1ccc(C2=C(C#N)C(=O)N[C@@](c3ccc(OCCCCCC(F)(F)F)cc3)(C(F)(F)F)C2)cn1` [Example 72, (S)-6-Methoxy-2′-oxo-6′-(4-((6,6,6-trifluorohexyl)oxy)phenyl)-6′-(trifluoromethyl)-1′,2′,5′,6′-tetrahydro-[3,4′-bipyridine]-3′-carbonitrile] showed an IC50 of 10.3 nM.

`N#CC1=C(c2ccc(C3CC3)s2)C[C@](c2ccc(OCCCC(F)(F)F)cc2)(C(F)(F)F)NC1=O` [Example 74, (S)-4-(5-Cyclopropylthiophen-2-yl)-2-oxo-6-(4-(4,4,4-trifluorobutoxy)phenyl)-6-(trifluoromethyl)-1,2,5,6-tetrahydropyridine-3-carbonitrile] had an IC50 of 15 nM.

Regarding `CCc1ccc(C2=C(NC(=O)CS(C)(=O)=O)C(=O)N[C@@](c3ccc(OCCCCCC(F)(F)F)cc3)(C(F)(F)F)C2)s1` [Example 75, (S)—N-(4-(5-Ethylthiophen-2-yl)-2-oxo-6-(4-((6,6,6-trifluorohexyl)oxy)phenyl)-6-(trifluoromethyl)-1,2,5,6-tetrahydropyridin-3-yl)-2-(methylsulfonyl)acetamide], the IC50 is 1.5 nM.

In turn, `COc1ccc(NC(=O)C2=C(c3ccn(C4CC4)n3)C[C@](c3ccc(OCCCC(F)(F)F)cc3)(C(F)(F)F)NC2=O)cc1` [Example 76, (S)-4-(1-Cyclopropyl-1H-pyrazol-3-yl)-N-(4-methoxyphenyl)-2-oxo-6-(4-(4,4,4-trifluorobutoxy)phenyl)-6-(trifluoromethyl)-1,2,5,6-tetrahydropyridine-3-carboxamide] displayed an IC50 of 4.2 nM.

Regarding `Cc1cnn(C2=C(C#N)C(=O)N[C@@](c3ccc(OCCCC(F)(F)F)cc3)(C(F)(F)F)C2)c1` [Example 77], the IC50 was 522 nM.
